For 30 molecules, EC50 and Ki results are on record in PubChem BioAssay AID2039 (NMMLSC, 2009).

The source made the active and inactive calls. The rule behind the calls is not given here.

This test concerns the target Ras-related C3 botulinum toxin substrate 1 (Homo sapiens) (UniProt P63000). The test is described as follows: activated mutant Rac1 GTP binding inhibitors, SAR follow-up, biochemical, additional analogs, multiplex bead flow cytometry (AID 2039). Conditions: Multiplex flow cytometry bead GTP-binding assay; for Ki: measured here: Ki for Rac1 nucleotide binding.

As for `O=C1Nc2c(Br)cccc2/C1=C1/Cc2ccccc2C1=O`, the EC50 (usually the concentration that produces a half-maximal response) is “inactive”.
On the same count and under the same terms, then `O=C1C(c2c(O)[nH]c3c(F)cccc23)=Nc2ccccc21`, with “inactive”.
Turning to `O=C1N=c2ccccc2=C1c1[nH]c(=S)[nH]c1O`, the EC50 result was “inactive” and the Ki (commonly a dissociation constant, usually derived from enzyme kinetics or from competition with a known ligand) worked out at 640 nM.
With `O=C1Nc2ccccc2/C1=C1/Cc2ccccc2C1=O`, the EC50 result is “inactive”.
Same read-out and setting: then `COc1ccc(S(=O)(=O)n2c(N)c(C#N)c(-c3cc(Br)c(OC)c(OC)c3)c2C(=O)c2ccccc2)cc1`, with “inactive”.
Turning to `O=Nc1c(-c2c(O)[nH]c3c(F)cccc23)[nH]c2ccccc12`, the EC50 result is “inactive” and the Ki is 2870 nM.
The matching figures for `COc1cc(-c2c(C#N)c(N)n(S(=O)(=O)c3c(C(C)C)cc(C(C)C)cc3C(C)C)c2C(=O)c2ccccc2)cc(OC)c1OC`: “inactive” and 6050 nM.
The matching figures for `CSc1ccc(/C=C2/C(C)=C(CC(=O)O)c3cc(F)ccc32)cc1`: “inactive” and 4850 nM.
Turning to `O=C(C#Cc1ccccc1)c1ccccc1[N+](=O)[O-]`, the EC50 result was “inactive”.
In the case of `O=C1C(c2c(O)[nH]c3c(Cl)cccc23)=Nc2ccccc21`, the EC50 entry is “inactive”.
`COc1ccc(-c2c(C#N)c(N)n(S(C)(=O)=O)c2C(=O)c2ccccc2)cc1Br`: the EC50 result was “inactive”.
Still for that read-out and setting: to `COc1ccc2cc(CC(=O)O)ccc2c1` belongs “inactive”.
Take `CC1=C(CC(=O)O)c2cc(F)ccc2/C1=C/c1ccc(S(C)=O)cc1` (configuration not stated): the EC50 result is “inactive” and the Ki worked out at 4240 nM.
On to `O=C(C#Cc1ccccc1)c1ccc([N+](=O)[O-])cc1`, for which the half-maximal effective concentration (EC50) is 8370 nM and the inhibition constant Ki is 760 nM.
Take `O=Nc1c(-c2c(O)[nH]c3c(Cl)cccc23)[nH]c2ccccc12`: the EC50 result was “inactive”.
On the same count and under the same terms, to `CCCCS(=O)(=O)n1c(N)c(C#N)c(-c2cc(OC)c(OC)c(OC)c2)c1C(=O)c1ccccc1` belongs “inactive”.
Turning to `O=Nc1c(-c2c(O)[nH]c3ccc(Br)cc23)[nH]c2ccccc12`, the EC50 result was “inactive” and the inhibitory constant (Ki) turned out to be 2980 nM.
In the case of `O=C1C(c2c(O)[nH]c3ccccc23)=Nc2ccccc21`, the EC50 entry is “inactive”.
On to `O=C1C(c2c(O)[nH]c3c(Br)cccc23)=Nc2ccccc21`, for which the EC50 result is “inactive” and the Ki came out at 2510 nM.
As to `O=C(C#Cc1ccccc1)c1ccccc1`, the EC50 entry was “inactive”.
Turning to `O=Nc1c(-c2c(O)[nH]c3ccccc23)[nH]c2ccccc12`, the EC50 entry was “inactive”.
`O=C1N=c2ccccc2=C1c1[nH]c(=O)[nH]c1O`: the EC50 result is “inactive” and the Ki amounted to 1060 nM.
As for `CC(C(=O)O)c1cccc(Oc2ccccc2)c1` (configuration not stated), the EC50 result is “inactive”.
Regarding `O=Nc1c(-c2c(O)[nH]c3c(Br)cccc23)[nH]c2ccccc12`, the EC50 entry was “inactive”.
With `O=C1C(c2c(O)[nH]c3ccc(Br)cc23)=Nc2ccccc21`, the EC50 result was “inactive” and the Ki is 1110 nM.
For `COc1ccc(S(=O)(=O)n2c(N)c(C#N)c(-c3ccccc3)c2C(=O)c2ccc(Br)cc2)cc1`, the EC50 entry was “inactive”.
On the same count and under the same terms, then `O=C1Nc2cccc(Br)c2/C1=C1/Cc2ccccc2C1=O`, with “inactive”; and `CC(=O)Oc1ccccc1C(=O)O`, with “inactive”.
With `N#Cc1c(-c2ccc(Cl)cc2)c(C(=O)c2ccccc2)n(S(=O)(=O)c2ccc([N+](=O)[O-])cc2)c1N`, the EC50 result was “inactive” and the inhibition constant Ki turned out to be 540 nM.
Taken in the same sequence, the figures for `COc1ccc(S(=O)(=O)n2c(N)c(C#N)c(-c3cncc(Br)c3)c2C(=O)c2ccccc2)cc1` were “inactive” and 1060 nM.
